Laboratory results reported in paper PMC5268410, “Mode of Action of the Natural Insecticide, Decaleside Involves Sodium Pump Inhibition” (PLoS ONE, 2017).

Tests used:
[1] = target: T1, purified Na^+, K^+ -ATPase (porcine cerebral cortex); test: phosphate release from ATP; assay type: biochemical, Sus scrofa; settings: 1.5 mM ATP; Na+ 0.14 M, K+ 14 mM, Mg2+ 3 mM; 37°C
T1 construct: gene ATP1A1; commercial native enzyme purified from porcine cerebral cortex (Sigma); with Sodium/potassium-transporting ATPase subunit beta-1; Sodium/potassium-transporting ATPase subunit beta-2

[2] = target: T1, purified Na^+, K^+ -ATPase (porcine cerebral cortex); test: phosphate release from ATP, ouabain-inhibitable activity; assay type: biochemical, Sus scrofa; settings: 1.5 mM ATP; Na+ 0.14 M, K+ 14 mM, Mg2+ 3 mM; 37°C; 30 min preincubation; competitive with ATP

## C[C@@H]1O[C@@H](O[C@H]2C[C@@H](O)[C@]3(CO)[C@H]4[C@H](O)C[C@]5(C)[C@@H](C6=CC(=O)OC6)CC[C@]5(O)[C@@H]4CC[C@]3(O)C2)[C@H](O)[C@H](O)[C@H]1O [Ouabain]
[1]
  IC50: 254 µM

## decaleside I
[2]
  IC50: 105 µM

## decaleside II
[2]
  IC50: 95 µM
